Measured values: PMC10584170, “Machine learning-based phenotypic imaging to characterise the targetable biology of Plasmodium falciparum male gametocytes for the development of transmission-blocking antimalarials” (PLOS Pathogens, 2023)
Where two headings read alike, the source gives them in different places.

How the values were obtained:
[1] = system: P. falciparum female gametocytes; assay: P. falciparum Dual Gamete Formation Assay (PfDGFA), female readout (Pfs25-positive female gametes); format: cell-based, Plasmodium falciparum NF54; details: for Selectivity ratio F: HepG2 Tox50 versus female IC50; for IC50: PfDGFA, 24 h incubation with gametocytes before induction, female gamete readout, read-out: Female IC50; for HitlevelF: number of replicates with >50% inhibition in the female readout
Summary of the method: (§1)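 Day-14 NF54 gametocytes were incubated with compound for 24 h at 37°C under 1% O2/3% CO2/96% N2. Gametogenesis was triggered with ookinete medium (0.1 μM xanthurenic acid) plus Cy3-anti-Pfs25, and exflagellation was imaged by brightfield after cooling to 4°C then 28°C. Females were imaged by Pfs25 fluorescence 24 h later at 28°C.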

[2] = system: P. falciparum male gametocytes; assay: P. falciparum Dual Gamete Formation Assay (PfDGFA), male readout (exflagellation); format: cell-based, Plasmodium falciparum NF54; details: for Selectivity Ratio M: HepG2 Tox50 versus male IC50; for IC50: PfDGFA, 24 h incubation with gametocytes before induction, exflagellation readout, read-out: Male IC50; for HitlevelM: number of replicates with >50% inhibition in the male readout
Summary of the method: as §1

HepG2 cells = assay: HepG2 cytotoxicity counter-screen; details: cytotoxic activity against HepG2 cells
[3] = Plasmodium falciparum, PfDGFA at 2µM, 24h preincubation with gametocytes, average of replicates, read-out: Average inhibition female (%)
[4] = Plasmodium falciparum, PfDGFA at 2µM, 24h preincubation with gametocytes, replicate R1, read-out: % inhibition female (individual replicates) R1
[5] = Plasmodium falciparum, PfDGFA at 2µM, 24h preincubation with gametocytes, replicate R2, read-out: % inhibition female (individual replicates) R2
[6] = Plasmodium falciparum, PfDGFA at 2µM, 24h preincubation with gametocytes, replicate R3, read-out: % inhibition female (individual replicates) R3
[7] = Plasmodium falciparum, PfDGFA at 2µM, 24h preincubation with gametocytes, replicate R4, read-out: % inhibition female (individual replicates) R4
[8] = Plasmodium falciparum, PfDGFA at 2µM, 24h preincubation with gametocytes, average of replicates, read-out: Average inhibition male (%)
[9] = Plasmodium falciparum, PfDGFA at 2µM, 24h preincubation with gametocytes, replicate R1, read-out: % inhibition male (individual replicates) R1
[10] = Plasmodium falciparum, PfDGFA at 2µM, 24h preincubation with gametocytes, replicate R2, read-out: % inhibition male (individual replicates) R2
[11] = Plasmodium falciparum, PfDGFA at 2µM, 24h preincubation with gametocytes, replicate R3, read-out: % inhibition male (individual replicates) R3
[12] = Plasmodium falciparum, PfDGFA at 2µM, 24h preincubation with gametocytes, replicate R4, read-out: % inhibition male (individual replicates) R4
[13] = PfDGFA at 2µM, 24h preincubation with gametocytes, average of replicates
[14] = PfDGFA at 2µM, 24h preincubation with gametocytes, replicate R1
[15] = PfDGFA at 2µM, 24h preincubation with gametocytes, replicate R3
[16] = PfDGFA at 2µM, 24h preincubation with gametocytes, replicate R4
[17] = 2µM, 24h preincubation with gametocytes prior to induction of gametogenesis, average of replicates
[18] = 2µM, 24h preincubation with gametocytes prior to induction of gametogenesis, replicate R1
[19] = 2µM, 24h preincubation with gametocytes prior to induction of gametogenesis, replicate R3
[20] = 2µM, 24h preincubation with gametocytes prior to induction of gametogenesis, replicate R4
[21] = 2µM, 24h preincubation with gametocytes, average of replicates
[22] = 2µM, 24h preincubation with gametocytes, replicate R1
[23] = 2µM, 24h preincubation with gametocytes, replicate R3
[24] = 2µM, 24h preincubation with gametocytes, replicate R4

COc1ccc2nc3cc(Cl)ccc3c(NCCCCNc3c4ccc(Cl)cc4nc4ccc(OC)cc34)c2c1 [TCMDC-138218]
Selectivity ratio F [1]: 6.16 | inhibition at 2 µM [1, 3]: 88.1% | inhibition at 2 µM [1, 4]: 84.2% | inhibition at 2 µM [1, 5]: 86.6% | inhibition at 2 µM [1, 6]: 91.5% | inhibition at 2 µM [1, 7]: 89.9% | IC50 ([1]; Plasmodium falciparum): 380 nM | HitlevelF ([1]; 2µM): 4 | Selectivity Ratio M [2]: 6.15 | inhibition at 2 µM [2, 8]: 73.2% | inhibition at 2 µM [2, 9]: 64.4% | inhibition at 2 µM [2, 10]: 64.9% | inhibition at 2 µM [2, 11]: 77.2% | inhibition at 2 µM [2, 12]: 86.3% | IC50 ([2]; Plasmodium falciparum): 380 nM | HitlevelM ([2]; 2µM): 4 | Tox50 (HepG2 cells): 2.31 µM

COc1ccc(N2CCN(CCCCNCc3ccc(NC(=O)c4cc(Cl)cc(Cl)c4)cc3)CC2)c(OC)c1 [TCMDC-138226]
Selectivity ratio F [1]: 1.04 | Average inhibition female (%) [1, 13]: 28.5% | % inhibition female (individual replicates) R1 [1, 14]: 20.8% | % inhibition female (individual replicates) R3 [1, 15]: 39.5% | % inhibition female (individual replicates) R4 [1, 16]: 12.9% | IC50 [1]: 5220 nM | HitlevelF ([1]; 2µM): 0 | Selectivity Ratio M [2]: 3.29 | Average inhibition male (%) [2, 13]: 83.1% | % inhibition male (individual replicates) R1 [2, 14]: 85.0% | % inhibition male (individual replicates) R3 [2, 15]: 71.2% | % inhibition male (individual replicates) R4 [2, 16]: 96.9% | IC50 [2]: 1640 nM | HitlevelM ([2]; 2µM): 4 | Tox50 (HepG2 cells): 5.4 µM

CN(C)CCNCc1ccc(-c2ccc3c(Nc4ccc(Cl)cc4F)ccnc3c2)o1 [TCMDC-138391]
Average inhibition female (%) [1, 17]: 37.2% | % inhibition female (individual replicates) R1 [1, 18]: 39.6% | % inhibition female (individual replicates) R3 [1, 19]: 32.6% | % inhibition female (individual replicates) R4 [1, 20]: 31.7% | HitlevelF ([1]; 2µM, 24h preincubation): 0 | Selectivity ratio F [1]: 2.31 | IC50 [1]: 5590 nM | Average inhibition male (%) [2, 17]: 55.2% | % inhibition male (individual replicates) R1 [2, 18]: 62.6% | % inhibition male (individual replicates) R3 [2, 19]: 53.9% | % inhibition male (individual replicates) R4 [2, 20]: 79.6% | HitlevelM ([2]; 2µM, 24h preincubation): 3 | Selectivity Ratio M [2]: 7.38 | IC50 [2]: 1750 nM | Tox50 (HepG2 cells): 12.91 µM

CN(C)CCN(C)Cc1ccc(-c2ccc3c(Nc4ccc(Oc5ccccc5)cc4)ccnc3c2)o1 [TCMDC-138400]
Average inhibition female (%) [1, 21]: 65.3% | % inhibition female (individual replicates) R1 [1, 22]: 57.3% | % inhibition female (individual replicates) R3 [1, 23]: 63.8% | % inhibition female (individual replicates) R4 [1, 24]: 69.5% | Selectivity ratio F [1]: 0.72 | IC50 [1]: 4780 nM | Average inhibition male (%) [2, 21]: 97.6% | % inhibition male (individual replicates) R1 [2, 22]: 97.3% | % inhibition male (individual replicates) R3 [2, 23]: 97.8% | % inhibition male (individual replicates) R4 [2, 24]: 99.6% | Selectivity Ratio M [2]: 3.65 | IC50 [2]: 940 nM | Tox50 (HepG2 cells): 3.45 µM

CC(C)S(=O)(=O)N1CCN(Cc2ccc3c(c2)nc(NC(=O)c2ccsc2)n3C[C@H](O)c2ccccc2)CC1 [TCMDC-138569]
Selectivity ratio F [1]: 0.85 | inhibition at 2 µM [1, 3]: 9.7% | inhibition at 2 µM [1, 4]: 10.7% | inhibition at 2 µM [1, 5]: -0.7% | inhibition at 2 µM [1, 6]: -17.5% | inhibition at 2 µM [1, 7]: 46.4% | IC50 ([1]; Plasmodium falciparum): > 10000 nM | HitlevelF ([1]; 2µM): 0 | Selectivity Ratio M [2]: 20.83 | inhibition at 2 µM [2, 8]: 67.3% | inhibition at 2 µM [2, 9]: 77.8% | inhibition at 2 µM [2, 10]: 73.7% | inhibition at 2 µM [2, 11]: 62.3% | inhibition at 2 µM [2, 12]: 55.6% | IC50 ([2]; Plasmodium falciparum): 410 nM | HitlevelM ([2]; 2µM): 4 | Tox50 (HepG2 cells): 8.48 µM

CN1CCN(CCCNCc2ccc(Nc3nccc(Nc4ccc(Oc5ccccc5)cc4)n3)cc2)CC1 [TCMDC-138621]
Selectivity ratio F [1]: 1.14 | Average inhibition female (%) [1, 13]: 16.4% | % inhibition female (individual replicates) R1 [1, 14]: 12.8% | % inhibition female (individual replicates) R3 [1, 15]: 8.2% | % inhibition female (individual replicates) R4 [1, 16]: 31.4% | IC50 [1]: 6880 nM | HitlevelF ([1]; 2µM): 0 | Selectivity Ratio M [2]: 4.45 | Average inhibition male (%) [2, 13]: 76.4% | % inhibition male (individual replicates) R1 [2, 14]: 65.3% | % inhibition male (individual replicates) R3 [2, 15]: 52.8% | % inhibition male (individual replicates) R4 [2, 16]: 96.9% | IC50 [2]: 1770 nM | HitlevelM ([2]; 2µM): 4 | Tox50 (HepG2 cells): 7.88 µM

Cl.O=C1Nc2ccc3ncccc3c2/C1=C/Nc1ccc(N2CCN(CCO)CC2)cc1 [TCMDC-138634]
Selectivity ratio F [1]: 3.39 | inhibition at 2 µM ([1]; Plasmodium falciparum, 2µM, 24h preincubation with gametocytes, average of replicates, read-out: Average inhibition female (%)): -7.8% | inhibition at 2 µM ([1]; Plasmodium falciparum, 2µM, 24h preincubation with gametocytes, replicate R1, read-out: % inhibition female (individual replicates) R1): -5.3% | inhibition at 2 µM ([1]; Plasmodium falciparum, 2µM, 24h preincubation with gametocytes, replicate R2, read-out: % inhibition female (individual replicates) R2): -7.3% | inhibition at 2 µM ([1]; Plasmodium falciparum, 2µM, 24h preincubation with gametocytes, replicate R3, read-out: % inhibition female (individual replicates) R3): -18.8% | inhibition at 2 µM ([1]; Plasmodium falciparum, 2µM, 24h preincubation with gametocytes, replicate R4, read-out: % inhibition female (individual replicates) R4): 0.25% | IC50 ([1]; Plasmodium falciparum): > 10000 nM | Selectivity Ratio M [2]: 229.28 | inhibition at 2 µM ([2]; Plasmodium falciparum, 2µM, 24h preincubation with gametocytes, average of replicates, read-out: Average inhibition male (%)): 92.8% | inhibition at 2 µM ([2]; Plasmodium falciparum, 2µM, 24h preincubation with gametocytes, replicate R1, read-out: % inhibition male (individual replicates) R1): 89.8% | inhibition at 2 µM ([2]; Plasmodium falciparum, 2µM, 24h preincubation with gametocytes, replicate R2, read-out: % inhibition male (individual replicates) R2): 91.5% | inhibition at 2 µM ([2]; Plasmodium falciparum, 2µM, 24h preincubation with gametocytes, replicate R3, read-out: % inhibition male (individual replicates) R3): 89.7% | inhibition at 2 µM ([2]; Plasmodium falciparum, 2µM, 24h preincubation with gametocytes, replicate R4, read-out: % inhibition male (individual replicates) R4): 100% | IC50 ([2]; Plasmodium falciparum): 150 nM | Tox50 (HepG2 cells): 33.87 µM

C=CC(C)C1OC(=O)c2cc(OC)cc(OC)c21 (stereo not drawn) [TCMDC-138676]
Average inhibition female (%) [1, 21]: 94.9% | % inhibition female (individual replicates) R1 [1, 22]: 92.0% | % inhibition female (individual replicates) R3 [1, 23]: 102.0% | % inhibition female (individual replicates) R4 [1, 24]: 91.3% | Selectivity ratio F [1]: 1.37 | IC50 [1]: 1150 nM | Average inhibition male (%) [2, 21]: 100.2% | % inhibition male (individual replicates) R1 [2, 22]: 101.1% | % inhibition male (individual replicates) R3 [2, 23]: 101.1% | % inhibition male (individual replicates) R4 [2, 24]: 99.6% | Selectivity Ratio M [2]: 2.76 | IC50 [2]: 570 nM | Tox50 (HepG2 cells): 1.57 µM
